Like-named read-outs stand apart in the source and are kept apart here.

Format in all cases: in vivo
The subject of one data set is Aphis fabae. The experiment in a line: Test against aphid, leaf dip method (Aphis fabae). As to conditions: foliar; for mortality at 12.5 µg/mL: 12.5 mg/L; for mortality at 12.5 µg/mL / mortality at 50 µg/mL / mortality at 200 µg/mL / mortality at 500 µg/mL: read-out: Activity (mortality) level against Aphis fabae; for mortality at 200 µg/mL: 200 mg/L. The method, boiled down:
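Horsebean seedlings carrying at least twenty 3-day-old Aphis fabae dipped 5 seconds in compound solutions (DMF, diluted in 0.2% aqueous Tween 80), three replicates with solvent blank. Live and dead insects counted after 24 hours.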

The subject of data set [1] is Armyworm (Mythimna separata (Walker)). The experiment in a line: Test against armyworm, Potter tower method. The settings on record: for mortality at 12.5 µg/mL / mortality at 50 µg/mL / mortality at 500 µg/mL: Mythimna separata, read-out: Activity (mortality) level against armyworm; for Activity against armyworm, further screening (in words): compared with chlorantraniliprole (D1). The method, boiled down: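 Third-instar larvae, ten per dish on corn leaf fragments, were sprayed in a Potter tower with 1 mL of compound in DMF diluted in 0.2% Tween 80, in triplicate. Mortality was scored after 72 h and reported as mean mortality against a solvent blank.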

Data set [2] deals with Spodoptera litura (Fabricius). The experiment in a line: Test against Spodoptera litura, leaf disc dip. The settings on record: after 72 hours; for Activity against Spodoptera litura (in words): second-instar larvae. The method, then:
(§1) The test compound was dissolved in an appropriate solvent such as N,N-dimethylformamide, and then diluted with 0.2% aqueous solution of Tween 80 to the desired concentration, Those without the test compounds were set as blank controls, the treatments were replicated 3 times. The cabbage leaves were perforated to get 18 mm diameter leaf discs by a hole puncher, 5 leaf discs were dipped in the test solution for 10 seconds and then put into a Petri dish (diameter 90 mm) padded with moisturizing filter paper, after air-drying, the leaf discs were infested with no less than ten second-instar larvae of test insects which were starved for 4 hours, and then the dish was covered and placed in a chamber for culture. After 72 hours, the number of dead insects was investigated, the mortality was calculated, and the regression equation, correlation coefficient (r) and the median lethal concentration (LC50) were obtained using Probit analysis method.

In data set [3] the test system is Diamondback moth (Plutella xylostella (Linnaeus)). The experiment in a line: Test against diamondback moth, leaf disc dip. As to conditions: second-instar larvae, after 72 hours. The protocol: as §1
The mark [4] stands for this setting: 12.5 mg/L, third-instar larvae, after 72 hours.
Where [5] appears, read: 50 mg/L, third-instar larvae, after 72 hours.
Setting [6] is: 500 mg/L, third-instar larvae, after 72 hours.

What is called mortality is the percentage killed. The LC50 is the concentration that kills 50% of the test population. As to `CCN(CC)C(=O)c1cc(Cl)cc(Cl)c1N(C)C(=O)c1cc(Br)nn1-c1ncccc1Cl` [Compound 15, N-[2,4-dichloro-6-[(diethylamino)carbonyl]phenyl]-N-methyl-1-(3-chloro-2-pyridinyl)-3-bromo-1H-pyrazole-5-carboxamide], the mortality at 12.5 µg/mL (with Aphis fabae (after 24 hours); in data set [1] (setting [4])) was 90 to 100% in each case. Further, the mortality at 50 µg/mL with Aphis fabae (50 mg/L, after 24 hours) lay in the range of 90 to 100%; in data set [1] (setting [5]), 90 to 100%. The mortality at 200 µg/mL with Aphis fabae (after 24 hours) fell in the range of 90 to 100%. Also, the mortality at 500 µg/mL in the data set with Aphis fabae (500 mg/L, after 24 hours) was in the range of 90 to 100%; in data set [1] (setting [6]), 90 to 100%. Moreover, the LC50 with Aphis fabae (further test, read-out: LC50 against Aphis fabae) is less than 1 µg/mL. For the same molecule, in data set [1], the “Activity against armyworm, further screening (in words)” value is recorded as “excellent activity”. The “Median lethal concentration LC50 against Spodoptera litura, compared with D1” value in data set [2] (same conditions) is recorded as “lower than that of chlorantraniliprole (D1)”. Further, in data set [2], the “Activity against Spodoptera litura (in words)” value is listed as “high activity at very low concentration”. In addition, the “Activity against diamondback moth (in words)” value in data set [3] is reported as “high activity at very low concentration”.

Regarding `CCN(C)C(=O)c1cc(Cl)cc(Br)c1N(C)C(=O)c1cc(Br)nn1-c1ncccc1Cl` [Compound 32, N-[2-bromo-4-chloro-6-[(methyl(ethyl)amino)carbonyl]phenyl]-N-methyl-1-(3-chloro-2-pyridinyl)-3-bromo-1H-pyrazole-5-carboxamide], the mortality at 12.5 µg/mL (with Aphis fabae (after 24 hours); in data set [1] (setting [4])) was 90 to 100% in each case. Also, the mortality at 50 µg/mL with Aphis fabae (50 mg/L, after 24 hours) was 90 to 100%; in data set [1] (setting [5]), 90 to 100%. In addition, in the data set with Aphis fabae (after 24 hours), the mortality at 200 µg/mL is 90 to 100%. Moreover, the mortality at 500 µg/mL lay in the range of 90 to 100% in the data set on Aphis fabae (500 mg/L, after 24 hours) and 90 to 100% in data set [1] (setting [6]). Moreover, the “Activity against armyworm, further screening (in words)” value in data set [1] was “excellent activity”. In data set [2], the “Activity against Spodoptera litura (in words)” value is reported as “high activity at very low concentration”. Also, the “Activity against diamondback moth (in words)” value in data set [3] was “high activity at very low concentration”.

With `CNC(=O)c1cc(Cl)cc(C)c1NC(=O)c1cc(Br)nn1-c1ncccc1Cl` [Compound D1, chlorantraniliprole, reference compound], in the data set on Aphis fabae (24 h), the mortality at 50 µg/mL was 0 to 50% and the mortality at 500 µg/mL lay in the range of 90 to 100%. The Activity against armyworm result in data set [1] (1.25 mg/L) is “less than 50%”. Besides, in data set [1] (72 h), the mortality at 12.5 µg/mL lay within 90 to 100%, the mortality at 50 µg/mL lay in the range of 90 to 100% and the mortality at 500 µg/mL lay in the range of 90 to 100%. Also, in data set [2], the “Activity against Spodoptera litura (in words)” value is reported as “high activity at very low concentration”. Also, the “Activity against diamondback moth (in words)” value in data set [3] is “high activity at very low concentration”.

Values taken from patent US20220132846A1, “1-PYRIDYL-PYRAZOLYL AMIDE COMPOUNDS AND PREPARATION AND USES THEREOF” (HUNAN RESEARCH INSTITUTE OF CHEMICAL INDUSTRY CO., LTD., priority 2019, published 2022).
